In ChEMBL document CHEMBL1147043, “Comparative metabolism of radiolabeled muraglitazar in animals and humans by quantitative and qualitative metabolite profiling” (Drug Metab Dispos, 2007):

What was measured:
Hepatocyte [1] = experiment: Metabolic stability in Sprague-Dawley rat hepatocytes assessed as hydroxyl muraglitazar glucuronide level by LC/MS analysis relative to control; type: ADME, cell-based
[2] = Biodistribution in orally dosed human urine assessed as muraglitazar glucuronide level by LC/MS analysis; type: ADME, organism-based; conditions: in vivo, po
[3] = Metabolic stability in cynomolgus monkey hepatocytes assessed as 9-hydroxy-O-demethyl muraglitazar level by LC/MS analysis relative to control; type: ADME, cell-based, Macaca fascicularis, Hepatocyte
Rattus norvegicus = experiment: AUC (0 to T) in Sprague-Dawley rat at 10 mg/kg, po after 24 hrs; type: ADME, organism-based, Plasma; set-up: time < 24 hr, dose 10 mg/kg, route oral; conditions: in vivo
[4] = Drug concentration in Sprague-Dawley rat feces assessed as recovery of radioactive dose at 11 mg/kg, po after 168 hrs; type: ADME, organism-based; set-up: dose 11 mg/kg, route oral; conditions: in vivo
Canis familiaris = experiment: Cmax in Beagle dog at 2 mg/kg, po after 4 hrs; type: ADME, organism-based, Canis lupus familiaris; set-up: dose 2 mg/kg, route oral; conditions: in vivo
[5] = Drug concentration in human urine assessed as recovery of radioactive dose at 10 mg, po after 240 hrs; type: ADME, organism-based; conditions: in vivo
[6] = Drug concentration in bile duct-cannulated cynomolgus monkey urine assessed as recovery of radioactive dose at 5 mg/kg, po after 48 hrs; type: ADME, organism-based, Macaca fascicularis; set-up: dose 5 mg/kg, route oral; conditions: in vivo
Plasma [7] = experiment: Biodistribution in orally dosed human plasma assessed as O-demethyl muraglitazar level after 12 hrs by LC/MS analysis; type: ADME, organism-based; conditions: in vivo, po
Plasma [8] = experiment: Biodistribution in orally dosed Sprague-Dawley rat plasma assessed as muraglitazar 12-carboxylic acid level after 12 hrs by LC/MS analysis; type: ADME, organism-based; conditions: in vivo, po
[9] = Fecal excretion of compound in orally dosed human within 96 hrs; type: ADME, organism-based; conditions: faeces, po, read-out: Activity
[10] = Drug concentration in bile duct-cannulated CD1 mouse feces assessed as recovery of radioactive dose at 1 mg/kg, po after 24 hrs; type: ADME, organism-based; set-up: dose 1 mg/kg, route oral; conditions: in vivo
[11] = Biodistribution in orally dosed Beagle dog feces assessed as O-demethyl muraglitazar level by LC/MS analysis; type: ADME, organism-based, Canis lupus familiaris; conditions: in vivo, po
[12] = Tmax in cynomolgus monkey at 1.9 mg/kg, po after 24 hrs; type: ADME, organism-based, Macaca fascicularis; set-up: dose 1.9 mg/kg, route oral; conditions: in vivo
Hepatocyte [13] = experiment: Metabolic stability in Sprague-Dawley rat hepatocytes assessed as muraglitazar 12-carboxylic acid level by LC/MS analysis relative to control; type: ADME, cell-based
[14] = Biodistribution in orally dosed cynomolgus monkey urine assessed as 17-hydroxy muraglitazar level by LC/MS analysis; type: ADME, organism-based, Macaca fascicularis; conditions: in vivo, po
Hepatocyte [15] = experiment: Metabolic stability in Sprague-Dawley rat hepatocytes assessed as 9-hydroxy muraglitazar level by LC/MS analysis relative to control; type: ADME, cell-based
Hepatocyte [16] = experiment: Metabolic stability in human hepatocytes assessed as 9-hydroxy muraglitazar level by LC/MS analysis relative to control; type: ADME, cell-based
[17] = Metabolic stability in cynomolgus monkey hepatocytes assessed as O-demethyl muraglitazar level by LC/MS analysis relative to control; type: ADME, cell-based, Macaca fascicularis, Hepatocyte
[18] = Biodistribution in orally dosed human feces assessed as 8,12-dihydroxy muraglitazar level by LC/MS analysis; type: ADME, organism-based; conditions: in vivo, po
Plasma [19] = experiment: Biodistribution in orally dosed cynomolgus monkey plasma assessed as muraglitazar glucuronide level after 1 hr by LC/MS analysis; type: ADME, organism-based, Macaca fascicularis; conditions: in vivo, po
Hepatocyte [20] = experiment: Metabolic stability in Sprague-Dawley rat hepatocytes assessed as 9-hydroxy-O-demethyl muraglitazar level by LC/MS analysis relative to control; type: ADME, cell-based
[21] = Biodistribution in orally dosed cynomolgus monkey urine assessed as O-dealkyl-O-demethyl muraglitazar level by LC/MS analysis; type: ADME, organism-based, Macaca fascicularis; conditions: in vivo, po
Hepatocyte [22] = experiment: Metabolic stability in Sprague-Dawley rat hepatocytes assessed as 12-hydroxy-O-demethyl muraglitazar level by LC/MS analysis relative to control; type: ADME, cell-based
[23] = Biodistribution in orally dosed Beagle dog feces assessed as 12,17-dihydroxy muraglitazar level by LC/MS analysis; type: ADME, organism-based, Canis lupus familiaris; conditions: in vivo, po
Plasma [24] = experiment: Biodistribution in orally dosed cynomolgus monkey plasma assessed as 8-hydroxy-O-demethyl muraglitazar level after 4 hrs by LC/MS analysis; type: ADME, organism-based, Macaca fascicularis; conditions: in vivo, po
[25] = Metabolic stability in cynomolgus monkey hepatocytes assessed as hydroxyl muraglitazar glucuronide level by LC/MS analysis relative to control; type: ADME, cell-based, Macaca fascicularis, Hepatocyte
[26] = Metabolic stability in CD1 mouse hepatocytes assessed as O-Dealkyl muraglitazar level by LC/MS analysis relative to control; type: ADME, cell-based, Hepatocyte
Plasma [27] = experiment: Biodistribution in orally dosed Beagle dog plasma assessed as 17-dihydroxy muraglitazar level after 1 hr by LC/MS analysis; type: ADME, organism-based, Canis lupus familiaris; conditions: in vivo, po
Plasma [28] = experiment: Biodistribution in orally dosed Sprague-Dawley rat plasma assessed as O-demethyl muraglitazar level after 1 hr by LC/MS analysis; type: ADME, organism-based; conditions: in vivo, po
[29] = Biodistribution in orally dosed human feces assessed as O-dealkyl muraglitazar level by LC/MS analysis; type: ADME, organism-based; conditions: in vivo, po
Plasma [30] = experiment: Biodistribution in orally dosed cynomolgus monkey plasma assessed as O-demethyl muraglitazar level after 4 hrs by LC/MS analysis; type: ADME, organism-based, Macaca fascicularis; conditions: in vivo, po
[31] = Biodistribution in orally dosed cynomolgus monkey feces assessed as O-dealkyl muraglitazar level by LC/MS analysis; type: ADME, organism-based, Macaca fascicularis; conditions: in vivo, po
[32] = Drug concentration in Beagle dog urine at 2 mg/kg, po after 24 hrs; type: ADME, organism-based, Canis lupus familiaris; set-up: dose 2 mg/kg, route oral; conditions: read-out: Drug uptake
[33] = Biodistribution in orally dosed Beagle dog feces assessed as 9,12-dihydroxy muraglitazar level by LC/MS analysis; type: ADME, organism-based, Canis lupus familiaris; conditions: in vivo, po
Plasma [34] = experiment: Biodistribution in orally dosed Beagle dog plasma assessed as 12-hydroxy-O-demethyl muraglitazar level after 1 hr by LC/MS analysis; type: ADME, organism-based, Canis lupus familiaris; conditions: in vivo, po
Plasma [35] = experiment: Biodistribution in orally dosed Sprague-Dawley rat plasma assessed as O-demethyl muraglitazar level after 4 hrs by LC/MS analysis; type: ADME, organism-based; conditions: in vivo, po
Plasma [36] = experiment: Biodistribution in orally dosed cynomolgus monkey plasma assessed as O-Dealkyl muraglitazar level after 4 hrs by LC/MS analysis; type: ADME, organism-based, Macaca fascicularis; conditions: in vivo, po
[37] = Biodistribution in orally dosed Beagle dog feces assessed as acetylimide derivative of muraglitazar level by LC/MS analysis; type: ADME, organism-based, Canis lupus familiaris; conditions: in vivo, po
[38] = Drug concentration in Sprague-Dawley rat urine assessed as recovery of radioactive dose at 11 mg/kg, po after 168 hrs; type: ADME, organism-based; set-up: dose 11 mg/kg, route oral; conditions: in vivo
Plasma [39] = experiment: Biodistribution in orally dosed Sprague-Dawley rat plasma assessed as 12,17-dihydroxy muraglitazar level after 12 hrs by LC/MS analysis; type: ADME, organism-based; conditions: in vivo, po
[40] = Drug concentration in bile duct-cannulated cynomolgus monkey feces assessed as recovery of radioactive dose at 5 mg/kg, po after 48 hrs; type: ADME, organism-based, Macaca fascicularis; set-up: dose 5 mg/kg, route oral; conditions: in vivo
Plasma [41] = experiment: Biodistribution in orally dosed human plasma assessed as 17-dihydroxy muraglitazar level after 4 hrs by LC/MS analysis; type: ADME, organism-based; conditions: in vivo, po
[42] = Biodistribution in orally dosed cynomolgus monkey urine assessed as muraglitazar glucuronide level by LC/MS analysis; type: ADME, organism-based, Macaca fascicularis; conditions: in vivo, po
[43] = Metabolic stability in cynomolgus monkey hepatocytes assessed as O-dealkyl-O-demethyl muraglitazar level by LC/MS analysis relative to control; type: ADME, cell-based, Macaca fascicularis, Hepatocyte
[44] = Metabolic stability in CD1 mouse hepatocytes assessed as 8-hydroxy-O-demethyl muraglitazar level by LC/MS analysis relative to control; type: ADME, cell-based, Hepatocyte
[45] = Metabolic stability in cynomolgus monkey hepatocytes assessed as 12-hydroxy-O-demethyl muraglitazar level by LC/MS analysis relative to control; type: ADME, cell-based, Macaca fascicularis, Hepatocyte
Plasma [46] = experiment: Biodistribution in orally dosed Beagle dog plasma assessed as O-Dealkyl muraglitazar level after 1 hr by LC/MS analysis; type: ADME, organism-based, Canis lupus familiaris; conditions: in vivo, po
Hepatocyte [47] = experiment: Metabolic stability in Sprague-Dawley rat hepatocytes assessed as O-dealkyl-O-demethyl muraglitazar level by LC/MS analysis relative to control; type: ADME, cell-based
[48] = Drug concentration in Beagle dog feces assessed as recovery of radioactive dose at 1.9 mg/kg, po after 168 hrs; type: ADME, organism-based, Canis lupus familiaris; set-up: dose 1.9 mg/kg, route oral; conditions: in vivo
[49] = Biodistribution in orally dosed human feces assessed as 8-hydroxy muraglitazar level by LC/MS analysis; type: ADME, organism-based; conditions: in vivo, po
[50] = Metabolic stability in cynomolgus monkey hepatocytes assessed as muraglitazar glucuronide level by LC/MS analysis relative to control; type: ADME, cell-based, Macaca fascicularis, Hepatocyte

COc1ccc(OC(=O)N(CC(=O)O)Cc2ccc(OCCc3nc(-c4ccccc4)oc3C)cc2)cc1 [MURAGLITAZAR]
Drug uptake (Hepatocyte [1]): 0.5% | Drug uptake [2]: 1% | Drug uptake [3]: 0.5% | AUC (Rattus norvegicus): 105 ugequiv.h/ml | Drug uptake [4]: 87.7% | Cmax (Canis familiaris): 1 ugequiv/ml | Drug uptake [5]: 2.6% | Drug uptake [6]: 5% | Drug uptake (Plasma [7]): 0.4% | Drug uptake (Plasma [8]): < 0.05% | dose excreted at 96 h [9]: 80% | Drug uptake [10]: 8.2% | Drug uptake [11]: 24.92% | Tmax [12]: 1 h | Drug uptake (Hepatocyte [13]): < 0.2% | Drug uptake [14]: 0.59% | Drug uptake (Hepatocyte [15]): 0.3% | Drug uptake (Hepatocyte [16]): 0.5% | Drug uptake [17]: 2.1% | Drug uptake [18]: 1.36% | Drug uptake (Plasma [19]): 0.1% | Drug uptake (Hepatocyte [20]): < 0.2% | Drug uptake [21]: 0.33% | Drug uptake (Hepatocyte [22]): < 0.2% | Drug uptake [23]: 0.89% | Drug uptake (Plasma [24]): 0.1% | Drug uptake [25]: 2.8% | Drug uptake [26]: 23.6% | Drug uptake (Plasma [27]): < 0.05% | Drug uptake (Plasma [28]): 2.3% | Drug uptake [29]: 0.8% | Drug uptake (Plasma [30]): 0.3% | Drug uptake [31]: 2.81% | dose excreted at 24 h [32]: 0.49% | Drug uptake [33]: 0.34% | Drug uptake (Plasma [34]): 1% | Drug uptake (Plasma [35]): 2.1% | Drug uptake (Plasma [36]): 0.3% | Drug uptake [37]: 0.18% | Drug uptake [38]: 1% | Drug uptake (Plasma [39]): < 0.05% | Drug uptake [40]: 15% | Drug uptake (Plasma [41]): 0.3% | Drug uptake [42]: 0.02% | Drug uptake [43]: < 0.2% | Drug uptake [44]: 4.8% | Drug uptake [45]: < 0.2% | Drug uptake (Plasma [46]): 2% | Drug uptake (Hepatocyte [47]): 0.3% | Drug uptake [48]: 89% | Drug uptake [49]: 0.56% | Drug uptake [50]: 1.7%
